In patent US20210254056A1, “IDENTIFICATION AND TARGETED MODULATION OF GENE SIGNALING NETWORKS” (CAMP4 THERAPEUTICS CORPORATION, priority 2017, published 2021):

System: hepatocytes
Assay: RNA-seq of hepatocytes treated with Phase III failure compounds
Method: RNA-seq was performed to determine the effects of the compounds on hepatocytes.
Significance was determined by the criteria of FPKM≥0.5, a log 2(fold-change)≥1, and a […].

[1] = RNA-seq, hepatocytes, gene named in the value

CCN(CC)CCN(Cc1ccc(-c2ccc(C(F)(F)F)cc2)cc1)C(=O)Cn1c(SCc2ccc(F)cc2)nc(=O)c2c1CCC2 [Darapladib]
RNA-seq results, CYP2B6 expression: −0.12 | RNA-seq results, CYP2C19 expression: −0.01 | RNA-seq results, CYP2D6 expression: −0.21 | RNA-seq results, CYP3A4 expression: −0.47 | RNA-seq results, CYP7B1 expression: −0.03 | RNA-seq results, CYP39A1 expression: −0.23 | RNA-seq results: CYP2B6 expression: 0.25 | RNA-seq results: CYP2C19 expression: 0.54 | RNA-seq results: CYP2D6 expression: −0.06 | RNA-seq results: CYP3A4 expression: 0.07 | RNA-seq results: CYP7B1 expression: −0.46 | RNA-seq results: CYP39A1 expression: −0.07 | significant modulation of expression of disease genes (RNA-seq, q≤0.05, hepatocytes, genes in the value or listed in the block): significantly (q≤0.05) modulate expression | genes down-regulated by the compound [1]: ANGPTL3 was observed to be down-regulated | genes up-regulated by the compound [1]: up-regulated genes: LDLR, PCSK9, and HMGCR | RNA-seq results: A1BG expression (gene A1BG, hepatocytes): 0.01 | RNA-seq results: AGTR1 expression (gene AGTR1, hepatocytes): −0.18 | RNA-seq results: AGXT expression (gene AGXT, hepatocytes): −0.38 | RNA-seq results: AHI1 expression (gene AHI1, hepatocytes): 0.12 | RNA-seq results: AMPD3 expression (gene AMPD3, hepatocytes): 0.42 | RNA-seq results: AMT expression (gene AMT, hepatocytes): −0.35 | RNA-seq results: ANGPTL3 expression (gene ANGPTL3, hepatocytes): −1.20 | RNA-seq results: ANKS4B expression (gene ANKS4B, hepatocytes): −0.52 | RNA-seq results: ANKS6 expression (gene ANKS6, hepatocytes): 0.11 | RNA-seq results: ANPEP expression (gene ANPEP, hepatocytes): 0.11 | RNA-seq results: AOC2 expression (gene AOC2, hepatocytes): 0.28 | RNA-seq results: APOA2 expression (gene APOA2, hepatocytes): −0.33 | RNA-seq results: APOA5 expression (gene APOA5, hepatocytes): −0.19 | RNA-seq results: APOB expression (gene APOB, hepatocytes): 0.54 | RNA-seq results: COG5 expression (gene COG5, hepatocytes): 0.11 | RNA-seq results: COG6 expression (gene COG6, hepatocytes): −0.09 | RNA-seq results: COL1A1 expression (gene COL1A1, hepatocytes): 0.18 | RNA-seq results: COX6A1 expression (gene COX6A1, hepatocytes): −0.08 | RNA-seq results: CP expression (gene CP, hepatocytes): 0.77 | RNA-seq results: CPS1 expression (gene CPS1, hepatocytes): −0.89 | RNA-seq results: CPT1A expression (gene CPT1A, hepatocytes): 0.11 | RNA-seq results: CPT2 expression (gene CPT2, hepatocytes): −0.16 | RNA-seq results: CROT expression (gene CROT, hepatocytes): −0.49 | RNA-seq results: CSPP1 expression (gene CSPP1, hepatocytes): 0.24 | RNA-seq results: CTC1 expression (gene CTC1, hepatocytes): −0.01 | RNA-seq results: CTDSP2 expression (gene CTDSP2, hepatocytes): 0.52 | RNA-seq results: CTH expression (gene CTH, hepatocytes): 1.17 | RNA-seq results: CTNS expression (gene CTNS, hepatocytes): −0.11 | RNA-seq results: CTSF expression (gene CTSF, hepatocytes): 0.25 | RNA-seq results: CTSK expression (gene CTSK, hepatocytes): 0.31 | RNA-seq results: CYB5A expression (gene CYB5A, hepatocytes): −0.12 | RNA-seq results: CYB5R3 expression (gene CYB5R3, hepatocytes): −0.21 | RNA-seq results: CYP27A1 expression (gene CYP27A1, hepatocytes): −0.18 | RNA-seq results: DAO expression (gene DAO, hepatocytes): −1.06 | RNA-seq results: DBT expression (gene DBT, hepatocytes): −0.13 | RNA-seq results: DCDC2 expression (gene DCDC2, hepatocytes): −1.43 | RNA-seq results: DCXR expression (gene DCXR, hepatocytes): −0.74 | RNA-seq results: FABP1 expression (gene FABP1, hepatocytes): 0.07 | RNA-seq results: FADD expression (gene FADD, hepatocytes): −0.45 | RNA-seq results: FAM111A expression (gene FAM111A, hepatocytes): 0.1 | RNA-seq results: FAM111B expression (gene FAM111B, hepatocytes): −2.15 | RNA-seq results: FAN1 expression (gene FAN1, hepatocytes): −0.03 | RNA-seq results: FARS2 expression (gene FARS2, hepatocytes): −0.42 | RNA-seq results: FASLG expression (gene FASLG, hepatocytes): −1.32 | RNA-seq results: FGA expression (gene FGA, hepatocytes): −0.32 | RNA-seq results: FGD1 expression (gene FGD1, hepatocytes): −0.46 | RNA-seq results: FGFR2 expression (gene FGFR2, hepatocytes): −0.13 | RNA-seq results: FIG4 expression (gene FIG4, hepatocytes): −0.07 | RNA-seq results: FIS1 expression (gene FIS1, hepatocytes): −0.35 | RNA-seq results: FTCD expression (gene FTCD, hepatocytes): −0.56 | RNA-seq results: FTH1 expression (gene FTH1, hepatocytes): 0.44 | RNA-seq results: FUCA1 expression (gene FUCA1, hepatocytes): −0.13 | RNA-seq results: FXN expression (gene FXN, hepatocytes): −0.22 | RNA-seq results: G6PC3 expression (gene G6PC3, hepatocytes): −0.52 | RNA-seq results: G6PC expression (gene G6PC, hepatocytes): 0.6 | RNA-seq results: G6PD expression (gene G6PD, hepatocytes): −0.41 | RNA-seq results: GALK1 expression (gene GALK1, hepatocytes): −0.61 | RNA-seq results: GALK2 expression (gene GALK2, hepatocytes): −0.14 | RNA-seq results: GALT expression (gene GALT, hepatocytes): −0.58 | RNA-seq results: GATA6 expression (gene GATA6, hepatocytes): 0 | RNA-seq results: GATM expression (gene GATM, hepatocytes): −0.52 | RNA-seq results: GBA expression (gene GBA, hepatocytes): −0.23 | RNA-seq results: GBE1 expression (gene GBE1, hepatocytes): −0.11 | RNA-seq results: GCH1 expression (gene GCH1, hepatocytes): −0.19 | RNA-seq results: GCKR expression (gene GCKR, hepatocytes): −0.06 | RNA-seq results: GCLC expression (gene GCLC, hepatocytes): −0.02 | RNA-seq results: GOSH expression (gene GOSH, hepatocytes): −1.21 | RNA-seq results: RRM2B (gene RRM2B, hepatocytes): −0.49 | RNA-seq results: RSAD1 (gene RSAD1, hepatocytes): −0.13 | RNA-seq results: SAMHD1 (gene SAMHD1, hepatocytes): −0.48 | RNA-seq results: SC5D (gene SC5D, hepatocytes): 0.37 | RNA-seq results: SCARB1 (gene SCARB1, hepatocytes): −0.07 | RNA-seq results: SCN9A (gene SCN9A, hepatocytes): −0.42 | RNA-seq results: SDCCAG8 (gene SDCCAG8, hepatocytes): −0.06 | RNA-seq results: SEPN1 (gene SEPN1, hepatocytes): −0.10 | RNA-seq results: SERAC1 (gene SERAC1, hepatocytes): −0.02 | RNA-seq results: SERPINA1 (gene SERPINA1, hepatocytes): −0.05 | RNA-seq results: SERPING1 (gene SERPING1, hepatocytes): 0.21 | RNA-seq results: SERPINI1 (gene SERPINI1, hepatocytes): −0.42 | RNA-seq results: SETBP1 (gene SETBP1, hepatocytes): −0.10 | RNA-seq results: SFXN4 (gene SFXN4, hepatocytes): −0.38 | RNA-seq results: SLC10A1 (gene SLC10A1, hepatocytes): −0.68 | RNA-seq results: SLC10A3 (gene SLC10A3, hepatocytes): 0.47 | RNA-seq results: SLC10A5 (gene SLC10A5, hepatocytes): −0.54 | RNA-seq results: SLC10A7 (gene SLC10A7, hepatocytes): −0.22 | RNA-seq results: SLC11A2 (gene SLC11A2, hepatocytes): 0.39 | RNA-seq results: SLC19A1 (gene SLC19A1, hepatocytes): −0.26 | RNA-seq results: SLC19A2 (gene SLC19A2, hepatocytes): 0.54 | RNA-seq results: SLC19A3 (gene SLC19A3, hepatocytes): −0.22 | RNA-seq results: SLC22A1 (gene SLC22A1, hepatocytes): −0.28 | RNA-seq results: SLC22A5 (gene SLC22A5, hepatocytes): −0.23 | RNA-seq results: SLC25A1 (gene SLC25A1, hepatocytes): 0.24 | RNA-seq results: SLC25A10 (gene SLC25A10, hepatocytes): −0.48 | RNA-seq results: SLC25A12 (gene SLC25A12, hepatocytes): −0.22 | RNA-seq results: SLC25A13 (gene SLC25A13, hepatocytes): 0.20 | RNA-seq results: SLC25A15 (gene SLC25A15, hepatocytes): −0.28 | RNA-seq results: SLC25A19 (gene SLC25A19, hepatocytes): 0.03 | RNA-seq results: SLC25A20 (gene SLC25A20, hepatocytes): −0.62 | RNA-seq results: SLC25A29 (gene SLC25A29, hepatocytes): 0.92 | RNA-seq results: SLC25A32 (gene SLC25A32, hepatocytes): −0.21
